IC50 data for 29 molecules are collected here from patent US9187465B2, “Oxazole tyrosine kinase inhibitors” (Sareum Limited, priority 2007, dated 2015).

pIC50: −log10 of the molar value. Where a name gives a salt, the structure may show the parent alone.

T1 sequence (P35916 789-1207): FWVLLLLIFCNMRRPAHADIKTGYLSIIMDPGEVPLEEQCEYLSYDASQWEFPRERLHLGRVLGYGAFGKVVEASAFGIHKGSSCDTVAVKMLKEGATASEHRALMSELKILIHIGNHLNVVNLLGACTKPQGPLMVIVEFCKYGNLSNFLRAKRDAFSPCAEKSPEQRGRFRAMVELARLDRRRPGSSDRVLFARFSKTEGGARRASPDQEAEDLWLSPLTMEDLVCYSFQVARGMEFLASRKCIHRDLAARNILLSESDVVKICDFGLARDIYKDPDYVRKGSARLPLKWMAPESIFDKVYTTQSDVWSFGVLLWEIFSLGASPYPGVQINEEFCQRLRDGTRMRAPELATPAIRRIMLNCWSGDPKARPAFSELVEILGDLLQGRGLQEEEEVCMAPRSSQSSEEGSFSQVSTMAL

The test concerns the target T1, human FLT4 (Homo sapiens, UniProt P35916).
T1 construct: a construct expressing the human FLT4 (789-1207) with an amino terminal GST tag; host or cells: Sf9 insect cells (baculovirus)
As to the kind of experiment: FLT4 kinase assay (DELFIA enzyme inhibition). Type of test: biochemical. The note with it: read-out: FLT4 IC50. The protocol:
A GST-kinase fusion protein of 70 KDa was produced using sf9 baculovirus expression system, with a construct expressing the human FLT4 (789-1207) with an amino terminal GST tag. The protein was purified by affinity chromatography using glutathione-agarose followed by separation on a gel filtration column.
FLT4 enzyme activity is determined using a Dissociation Enhanced Lanthanide Fluorescent Immunoassay (DELFIA) with a peptide substrate derived from the MET (Tyr 1253) peptide […] with a core sequence […].
The amount of phosphorylated peptide produced is detected by means of a phospho-Tyrosine specific Europium-labelled antibody using Time-Resolved Fluorescence at Excitation 360-35 nm and Emission 620-35 nm.
Assay reactions are set up in a 25 uL final volume on a 96 well plate. […] The reaction is allowed to proceed for 30 minutes at room temperature before stopping with 100 uL Stop solution comprising of 100 mM EDTA, 1×BSA blocker in TBS (Perbio) and 0.05% Surfact-Amps20 (Perbio).
The stopped reaction is transferred to a black 96-well Neutravidin-coated plate (Perbio) and incubated for 30 minutes to capture the biotinylated peptide substrate. After washing wells 3 times with 200 uL TBS/T buffer, Anti-Phospho-Tyr-100 antibody labelled with Eu—N1 (Perkin Elmer AD0159) is added to all wells for 60 minutes at room temperature. After a repeat washing step, DELFIA Enhancement solution (Perkin Elmer) is added to all wells for 5 minutes and the fluorescence measured on a plate reader Analyst HT (Molecular Devices).
The % inhibition of the activity is calculated and plotted in order to determine the concentration of test compound required to inhibit 50% of the enzyme activity (IC50).
Usually pIC50 stands for −log10 of the IC50, conventionally taken in molar units. In the case of `NC(=O)c1nc(-c2c(F)cccc2F)oc1-c1ccc(CNC(=O)c2ccccc2)cc1` [Example L-1, 5-(4-(benzamidomethyl)phenyl)-2-(2,6-difluorophenyl)oxazole-4-carboxamide], the pIC50 was greater than 5.00. For the molecule `CS(=O)(=O)c1ccc(-c2oc(-c3c(F)cccc3F)nc2C(N)=O)cc1` [Example F-6, 2-(2,6-difluorophenyl)-5-(4-(methylsulfonyl)phenyl)oxazole-4-carboxamide], the pIC50 is greater than 5.00. Then `NCC1CN(Cc2cccc(-c3oc(-c4c(F)cccc4F)nc3C(N)=O)c2)CCO1` (centres unmarked) [Example X-4, 5-(3-((2-(Aminomethyl)morpholino)methyl)phenyl)-2-(2,6-difluorophenyl)oxazole-4-carboxamide formate salt], with greater than 4.00; and `COc1cc(Nc2oc(-c3c(F)cccc3F)nc2C(N)=O)cc(OC)c1OC` [Example Q-40, 2-(2,6-difluorophenyl)-5-(3,4,5-trimethoxyphenylamino)oxazole-4-carboxamide], with greater than 5.00. As to `NC(=O)c1nc(-c2c(F)cccc2F)oc1-c1ccc(CNS(=O)(=O)c2ccccc2)cc1` [Example K-2, 2-(2,6-difluorophenyl)-5-(4-(phenylsulfonamidomethyl)phenyl)oxazole-4-carboxamide], the pIC50 is greater than 5.00. As for `NC(=O)c1nc(-c2c(F)cccc2F)oc1-c1ccc(CN2CCOCC2)cc1` [Example F-20, 2-(2,6-difluorophenyl)-5-(4-(morpholinomethyl)phenyl)oxazole-4-carboxamide], the pIC50 was greater than 4.00. Then `NC(=O)c1nc(-c2c(F)cccc2F)oc1-n1cnc2ccccc21` [Example Q-38, 5-(1H-benzo[d]imidazol-1-yl)-2-(2,6-difluorophenyl)oxazole-4-carboxamide], with greater than 5.00; and `COc1ccc(-c2nc(-c3cc(OC)cc(OC)c3)[nH]c2C(N)=O)cc1` [Example A-17, 2-(3,5-dimethoxyphenyl)-4-(4-methoxyphenyl)-1H-imidazole-5-carboxamide], with greater than 4.00. Regarding `NC(=O)c1nc(-c2c(F)cccc2F)oc1-c1cccc(C(=O)N2CCOCC2)c1` [Example F-30, 2-(2,6-Difluorophenyl)-5-(3-(morpholine-4-carbonyl)phenyl)oxazole-4-carboxamide], the pIC50 was greater than 5.00.

Regarding `NC(=O)c1nc(Nc2cn[nH]c2)oc1-c1ccc(N2CCNCC2)cc1` [Example R-19, 2-(1H-pyrazol-4-ylamino)-5-(4-(piperazin-1-yl)phenyl)oxazole-4-carboxamide], the negative logarithm of the IC50 (pIC50) was greater than 5.00. Regarding `COc1ccc(-c2oc(-c3cccs3)nc2C(N)=O)cc1` [Example M-1, 5-(4-methoxyphenyl)-2-(thiophen-2-yl)oxazole-4-carboxamide], the pIC50 was greater than 5.00. For the molecule `NC(=O)c1nc(-c2c(F)cccc2F)oc1-c1ccc(CNC(=O)c2cccs2)cc1` [Example L-3, 2-(2,6-difluorophenyl)-5-(4-((thiophene-2-carboxamido)methyl)phenyl)oxazole-4-carboxamide], the pIC50 is greater than 5.00.

For the molecule `COc1ccc(-c2oc(-c3c(F)cccc3F)nc2C(N)=O)cc1OC` [Example F-28, 2-(2,6-difluorophenyl)-5-(3,4-dimethoxyphenyl)oxazole-4-carboxamide], the negative logarithm of the IC50 (pIC50) is greater than 5.00. To `NC(=O)c1nc(-c2c(F)cccc2F)oc1-c1cccc(CN2CCOCC2)c1` [Example X-1, 2-(2,6-Difluorophenyl)-5-(3-(morpholinomethyl)phenyl)oxazole-4-carboxamide] belongs greater than 4.00; to `NC(=O)c1nc(-c2c(F)cccc2F)oc1-c1ccc(S(N)(=O)=O)cc1` [Example F-21, 5-(4-benzenesulfonamide)-2-(2,6-difluorophenyl)oxazole-4-carboxamide], greater than 5.00; to `COc1ccc(-c2nc(-c3c(F)cccc3F)oc2C(N)=O)cc1` [Example D-1, 2-(2,6-difluorophenyl)-4-(4-methoxyphenyl)oxazole-5-carboxamide], greater than 5.00.

In the case of `NC(=O)c1nc(-c2c(F)cccc2F)oc1-c1cccc(CN2CCNCC2)c1` [Example X-3, 2-(2,6-Difluorophenyl)-5-(3-(piperazin-1-ylmethyl)phenyl)oxazole-4-carboxamide formate salt], the pIC50 is greater than 4.00. Take `COc1cccc(-c2nc(-c3c(F)cccc3F)[nH]c2C(N)=O)c1` [Example A-20, 2-(2,6-difluorophenyl)-4-(3-methoxyphenyl)-1H-imidazole-5-carboxamide]: the pIC50 was greater than 4.00. To `COc1ccc(-c2nc(-c3ccc(Br)cc3F)[nH]c2C(N)=O)cc1` [Example A-9, 2-(4-bromo-2-fluorophenyl)-4-(4-methoxyphenyl)-1H-imidazole-5-carboxamide] belongs greater than 4.00; to `NC(=O)c1nc(-c2c(F)cccc2F)oc1-c1cccs1` [Example E-1, 2-(2,6-difluorophenyl)-5-(thiophen-2-yl)oxazole-4-carboxamide], greater than 5.00; to `NC(=O)c1nc(-c2c(F)cccc2F)oc1-c1cccc(CN2CCNC(=O)C2)c1` [Example X-2, 2-(2,6-Difluorophenyl)-5-(3-((3-oxopiperazin-1-yl)methyl)phenyl)oxazole-4-carboxamide], greater than 4.00. Consider `NC(=O)c1nc(-c2c(F)cccc2F)oc1-c1ccc2c(c1)OCO2` [Example F-29, 5-(benzo[d][1,3]dioxol-5-yl)-2-(2,6-difluorophenyl)oxazole-4-carboxamide], for which the pIC50 was greater than 4.00. Consider `NC(=O)c1nc(-c2c(F)cccc2F)oc1-c1ccc(CNS(=O)(=O)c2ccc(F)cc2)cc1` [Example K-1, 2-(2,6-difluorophenyl)-5-(4-((4-fluorophenylsulfonamido)methyl)phenyl)oxazole-4-carboxamide], for which the pIC50 is greater than 5.00. As for `NC(=O)c1nc(-c2c(F)cccc2F)oc1-c1ccccc1` [Example F-1, 2-(2,6-difluorophenyl)-5-phenyloxazole-4-carboxamide], the pIC50 was greater than 5.00. For `COc1ccc(-c2nc(-c3ccccc3)[nH]c2C(N)=O)cc1` [Example A-1, 4-(4-methoxyphenyl)-2-phenyl-1H-imidazole-5-carboxamide], the pIC50 was greater than 4.00. On to `COc1ccc(-c2oc(-c3ccsc3)nc2C(N)=O)cc1` [Example M-5, 5-(4-methoxyphenyl)-2-(thiophen-3-yl)oxazole-4-carboxamide], for which the pIC50 is greater than 5.00. Regarding `NC(=O)c1[nH]c(-c2c(F)cccc2F)nc1-c1ccccc1` [Example A-19, 2-(2,6-difluorophenyl)-4-phenyl-1H-imidazole-5-carboxamide], the pIC50 is greater than 4.00.

Consider `NC(=O)c1nc(-c2c(F)cccc2F)oc1-c1ccc(N2CCOCC2)cc1` [Example F-4, 2-(2,6-difluorophenyl)-5-(4-morpholinophenyl)oxazole-4-carboxamide], for which the pIC50 was greater than 5.00. With `NC(=O)c1nc(-c2c(F)cccc2F)oc1Nc1ccc(N)cc1` [Example V-1, 5-(4-aminophenylamino)-2-(2,6-difluorophenyl)oxazole-4-carboxamide], the pIC50 was greater than 5.00.
